Measured values published in US20250145596A1, “HETEROCYCLIC GLP-1 AGONISTS” (Gasherbrum Bio, Inc., priority 2022, published 2025).

Target: T1, GLP-1 Receptor (Homo sapiens, UniProt P43220)
T1 construct: host or cells: HEK293/CRE-Luc
Assay: GLP-1R agonist cAMP stimulation assay
Type: cell-based
Details: HEK293/CRE-Luc cell line stably expressing the GLP-1 Receptor; 30 min at 37° C.; cAMP dynamic 2 Kit
Description: Activation of GLP-1 receptor is known to stimulate cyclic AMP (cAMP) production in cells which indicates primary coupling to the Gas subunit of the G protein heterotrimeric complex.
To optimize functional activity directed toward Gas coupling, a HEK293/CRE-Luc cell line developed by HDB stably expressing the GLP-1 Receptor was used. 200× concentration of compound working solutions were prepared (Agilent Technologies Bravo) with ½ log serial dilution in 384-well Echo LDV plate (Labcyte, Cat #LP-0200). 50 nL/well 200× concentration of compound working solutions were moved to 384-well white low volume plate (Greiner, Cat #784075) using Labcyte ECHO550. 1×10^5 cells/mL HEK293/GLPlR/CRE-LUC (HD Biosciences) cell suspensions prepared with assay buffer [DPBS containing 0.5 mM IBMX (Sigma, Cat #15879) and 0.1% BSA (GENVIEW, Cat #FA016-100g)], 10 μL cell suspensions were added to each well of previous generated assay plate which already contains 50 nL compound at 200× concentration using ThermoFisher Multidrop Combi (1000 cells/well). Seal the plate and incubate at 37° C. with 5% CO2 for 30 min.
After incubation the cAMP assay signal was generated using cAMP dynamic 2 Kit (Cisbio). 5 μL cAMP-d2 working solution was added to each well, followed with 5 μL Anti-cAMP antibody-cryptate working solution added to each well using ThermoFisher Multidrop Combi. Incubate at room temperature for 1 hour protected from light. Read the fluorescence at 665 and 615 nm with Reader PerkinElmer EnVision.
% Activity=100%×(mean RLU of test sample mean RLU of vehicle control)/(mean RLU of MAX control−mean RLU of vehicle control))

T1 sequence (P43220 24-463): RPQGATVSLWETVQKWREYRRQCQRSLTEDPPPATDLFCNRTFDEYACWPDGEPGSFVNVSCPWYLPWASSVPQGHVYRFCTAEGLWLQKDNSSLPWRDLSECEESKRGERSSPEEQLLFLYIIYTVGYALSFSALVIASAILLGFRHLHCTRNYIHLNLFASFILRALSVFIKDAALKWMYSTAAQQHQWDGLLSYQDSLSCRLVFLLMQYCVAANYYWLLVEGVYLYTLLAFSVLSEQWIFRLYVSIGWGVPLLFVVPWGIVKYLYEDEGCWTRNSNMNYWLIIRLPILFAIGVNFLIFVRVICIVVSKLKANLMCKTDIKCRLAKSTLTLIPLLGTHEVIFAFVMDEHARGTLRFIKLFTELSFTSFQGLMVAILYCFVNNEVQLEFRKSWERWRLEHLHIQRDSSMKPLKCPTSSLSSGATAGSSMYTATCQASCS

SMILES | EC50
CC1(c2ccc(Cl)cc2F)Oc2cccc(C3CCN(Cc4ncc(-c5nnc(C(F)(F)F)[nH]5)cc4CC4(C#N)CC4)CC3O)c2O1 (single isomer, unassigned) [Example 23, 1-[(2-{[(3,4-trans)-4-[2-(4-chloro-2-fluorophenyl)-2-methyl-2H-1,3-benzodioxol-4-yl]-3-hydroxypiperidin-1-yl]methyl}-5-[5-(trifluoromethyl)-4H-1,2,4-triazol-3-yl]pyridin-3-yl)methyl]cyclopropane-1-carbonitrile] | 1 to 100 nM
CC1(c2ccc(Cl)cc2F)Oc2cccc(C3CCN(Cc4ncc(-c5nnc(C(F)(F)F)[nH]5)cc4CC4(C#N)CC4)CC3O)c2O1 (single isomer, unassigned) [Example 24, 1-[(2-{[(3,4-trans)-4-[2-(4-chloro-2-fluorophenyl)-2-methyl-2H-1,3-benzodioxol-4-yl]-3-hydroxypiperidin-1-yl]methyl}-5-[5-(trifluoromethyl)-4H-1,2,4-triazol-3-yl]pyridin-3-yl)methyl]cyclopropane-1-carbonitrile] | < 1 nM
C[C@]1(c2ccc(Cl)cn2)Oc2cccc(C3CCN(Cc4ncc(-c5nnc(C(F)(F)F)[nH]5)cc4CC4(C#N)CC4)CC3F)c2O1 (single isomer, unassigned) [Example 26] | < 1 nM
C[C@]1(c2ccc(Cl)cc2F)Oc2cccc(C3CCN(Cc4ncc(-c5nnc(C(F)(F)F)[nH]5)cc4CC4(C#N)CC4)CC3F)c2O1 (single isomer, unassigned) [Example 27] | < 1 nM
C[C@]1(c2ccc(Cl)cc2F)Oc2cccc(C3CCN(Cc4ncc(-c5nnc(C(F)(F)F)[nH]5)cc4CC4(C#N)CC4)CC3F)c2O1 (single isomer, unassigned) [Example 28] | < 1 nM
C[C@]1(c2ccc(Cl)cc2F)Oc2c(F)ccc(C3CCN(Cc4ncc(-c5nnc(C(F)(F)F)[nH]5)cc4CC4(C#N)CC4)CC3F)c2O1 (single isomer, unassigned) [Example 29] | < 1 nM
CC1(c2ccc(Cl)cc2Cl)Oc2cccc(C3CCN(Cc4ncc(-c5nnc(C(F)(F)F)[nH]5)cc4CC4(C#N)CC4)CC3)c2O1 (stereo not shown) [Example 1, 1-{[2-({4-[2-(2,4-dichlorophenyl)-2-methyl-2H-1,3-benzodioxol-4-yl]piperidin-1-yl}methyl)-5-[5-(trifluoromethyl)-4H-1,2,4-triazol-3-yl]pyridin-3-yl]methyl}cyclopropane-1-carbonitrile] | < 1 nM
CC1(c2ccc(F)cc2Cl)Oc2cccc(C3CCN(Cc4ncc(-c5nnc(C(F)(F)F)[nH]5)cc4CC4(C#N)CC4)CC3)c2O1 (stereo not shown) [Example 4, 1-{[2-({4-[2-(2-chloro-4-fluorophenyl)-2-methyl-2H-1,3-benzodioxol-4-yl]piperidin-1-yl}methyl)-5-[5-(trifluoromethyl)-4H-1,2,4-triazol-3-yl]pyridin-3-yl]methyl}cyclopropane-1-carbonitrile] | < 1 nM
Cc1ccc(C2(C)Oc3cccc(C4CCN(Cc5ncc(-c6nnc(C(F)(F)F)[nH]6)cc5CC5(C#N)CC5)CC4)c3O2)c(Cl)c1 (stereo not shown) [Example 6, 1-((2-((4-(2-(2-Chloro-4-methylphenyl)-2-methylbenzo[d][1,3]dioxol-4-yl)piperidin-1-yl)methyl)-5-(5-(trifluoromethyl)-4H-1,2,4-triazol-3-yl)pyridin-3-yl)methyl)cyclopropane-1-carbonitrile] | < 1 nM
CC1(c2ccc(C(F)(F)F)cc2F)Oc2cccc(C3CCN(Cc4ncc(-c5nnc(C(F)(F)F)[nH]5)cc4CC4(C#N)CC4)CC3)c2O1 (stereo not shown) [Example 8, 1-((2-((4-(2-(2-fluoro-4-(trifluoromethyl)phenyl)-2-methylbenzo[d][1,3]dioxol-4-yl)piperidin-1-yl)methyl)-5-(5-(trifluoromethyl)-4H-1,2,4-triazol-3-yl)pyridin-3-yl)methyl)cyclopropane-1-carbonitrile] | < 1 nM
CC1(c2ccc(C(F)(F)F)cc2Cl)Oc2cccc(C3CCN(Cc4ncc(-c5nnc(C(F)(F)F)[nH]5)cc4CC4(C#N)CC4)CC3)c2O1 (stereo not shown) [Example 9, 1-((2-((4-(2-(2-Chloro-4-(trifluoromethyl)phenyl)-2-methylbenzo[d][1,3]dioxol-4-yl)piperidin-1-yl)methyl)-5-(5-(trifluoromethyl)-4H-1,2,4-triazol-3-yl)pyridin-3-yl)methyl)cyclopropane-1-carbonitrile] | < 1 nM
Cc1ccc(C2(C)Oc3cccc(C4CCN(Cc5ncc(-c6nnc(C(F)(F)F)[nH]6)cc5CC5(C#N)CC5)CC4)c3O2)cn1 (stereo not shown) [Example 11, 1-{[2-({4-[2-Methyl-2-(6-methylpyridin-3-yl)-2H-1,3-benzodioxol-4-yl]piperidin-1-yl}methyl)-5-[5-(trifluoromethyl)-4H-1,2,4-triazol-3-yl]pyridin-3-yl]methyl}cyclopropane-1-carbonitrile] | < 1 nM
CC1(c2ccc(Cl)cc2F)Oc2c(F)ccc(C3CCN(Cc4ncc(-c5nnc(C(F)(F)F)[nH]5)cc4CC4(C#N)CC4)CC3)c2O1 (stereo not shown) [Example 12, 1-{[2-({4-[2-(4-chloro-2-fluorophenyl)-7-fluoro-2-methyl-2H-1,3-benzodioxol-4-yl]piperidin-1-yl}methyl)-5-[5-(trifluoromethyl)-4H-1,2,4-triazol-3-yl]pyridin-3-yl]methyl}cyclopropane-1-carbonitrile] | < 1 nM

Other lines, results leading:

EC50 | SMILES
< 1 nM | CC1(c2ccc(Cl)cc2Cl)Oc2cccc(C3CCN(Cc4ncc(-c5nnc(C(F)(F)F)[nH]5)cc4CC4(C#N)CC4)CC3)c2O1 (single isomer, unassigned) [Example 2, 1-{[2-({4-[2-(2,4-dichlorophenyl)-2-methyl-2H-1,3-benzodioxol-4-yl]piperidin-1-yl}methyl)-5-[5-(trifluoromethyl)-4H-1,2,4-triazol-3-yl]pyridin-3-yl]methyl}cyclopropane-1-carbonitrile]
< 1 nM | CC1(c2ccc(Cl)cc2Cl)Oc2cccc(C3CCN(Cc4ncc(-c5nnc(C(F)(F)F)[nH]5)cc4CC4(C#N)CC4)CC3)c2O1 (single isomer, unassigned) [Example 3, 1-{[2-({4-[2-(2,4-dichlorophenyl)-2-methyl-2H-1,3-benzodioxol-4-yl]piperidin-1-yl}methyl)-5-[5-(trifluoromethyl)-4H-1,2,4-triazol-3-yl]pyridin-3-yl]methyl}cyclopropane-1-carbonitrile]
< 1 nM | CC1(c2ccc(Cl)cc2F)Oc2cc(F)cc(C3CCN(Cc4ncc(-c5nnc(C(F)(F)F)[nH]5)cc4CC4(C#N)CC4)CC3)c2O1 (single isomer, unassigned) [Example 13, 1-{[2-({4-[2-(4-chloro-2-fluorophenyl)-6-fluoro-2-methyl-2H-1,3-benzodioxol-4-yl]piperidin-1-yl}methyl)-5-[5-(trifluoromethyl)-4H-1,2,4-triazol-3-yl]pyridin-3-yl]methyl}cyclopropane-1-carbonitrile]
< 1 nM | CC1(c2ccc(Cl)cc2F)Oc2cc(F)cc(C3CCN(Cc4ncc(-c5nnc(C(F)(F)F)[nH]5)cc4CC4(C#N)CC4)CC3)c2O1 (single isomer, unassigned) [Example 14, 1-{[2-({4-[2-(4-chloro-2-fluorophenyl)-6-fluoro-2-methyl-2H-1,3-benzodioxol-4-yl]piperidin-1-yl}methyl)-5-[5-(trifluoromethyl)-4H-1,2,4-triazol-3-yl]pyridin-3-yl]methyl}cyclopropane-1-carbonitrile]
< 1 nM | C[C@]1(c2ccc(Cl)cn2)Oc2cccc(C3CCN(Cc4ncc(-c5nnc(C(F)(F)F)[nH]5)cc4CC4(C#N)CC4)CC3F)c2O1 (single isomer, unassigned) [Example 25]
< 1 nM | C[C@]1(c2ccc(Cl)cc2F)Oc2c(F)ccc(C3CCN(Cc4ncc(-c5nnc(C(F)(F)F)[nH]5)cc4CC4(C#N)CC4)CC3F)c2O1 (single isomer, unassigned) [Example 30]
< 1 nM | CC1(c2ccc(F)cc2F)Oc2cccc(C3CCN(Cc4ncc(-c5nnc(C(F)(F)F)[nH]5)cc4CC4(C#N)CC4)CC3)c2O1 (stereo not shown) [Example 5, 1-{[2-({4-[2-(2,4-difluorophenyl)-2-methyl-2H-1,3-benzodioxol-4-yl]piperidin-1-yl}methyl)-5-[5-(trifluoromethyl)-4H-1,2,4-triazol-3-yl]pyridin-3-yl]methyl}cyclopropane-1-carbonitrile]
< 1 nM | Cc1cc(Cl)ccc1C1(C)Oc2cccc(C3CCN(Cc4ncc(-c5nnc(C(F)(F)F)[nH]5)cc4CC4(C#N)CC4)CC3)c2O1 (stereo not shown) [Example 7, 1-((2-((4-(2-(4-chloro-2-methylphenyl)-2-methylbenzo[d][1,3]dioxol-4-yl)piperidin-1-yl)methyl)-5-(5-(trifluoromethyl)-4H-1,2,4-triazol-3-yl)pyridin-3-yl)methyl)cyclopropane-1-carbonitrile]
< 1 nM | CC1(c2ccc(Cl)c(F)c2)Oc2cccc(C3CCN(Cc4ncc(-c5nnc(C(F)(F)F)[nH]5)cc4CC4(C#N)CC4)CC3)c2O1 (stereo not shown) [Example 10, 1-{[2-({4-[2-(4-Chloro-3-fluorophenyl)-2-methyl-2H-1,3-benzodioxol-4-yl]piperidin-1-yl}methyl)-5-[5-(trifluoromethyl)-4H-1,2,4-triazol-3-yl]pyridin-3-yl]methyl}cyclopropane-1-carbonitrile]
